Where “and” joins values, the source holds several entries; their conditions need not be identical. Identical values can stand only once. Toxic doses and inconclusive results are not listed.
System: P388 leukemia ip, CD2F1 mice, survival T/C
Assay: NCI In Vivo Anticancer Drug Screen. Data for tumor model P388 Leukemia (intraperitoneal) in CD2F1 (CDF1) mice
Conditions: endpoint: median survival time, higher = longer survival
Method in brief: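 Mice carrying the transplanted tumor received test compound or vehicle. Survival was recorded in each group, and the value is the treated-group measurement divided by that of the vehicle-treated control group.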

[1] = dose: 100.0 mg/kg/injection, schedule: Q01DX009 (ip), vehicle: saline
[2] = dose: 200.0 mg/kg/injection, schedule: Q01DX009 (ip), vehicle: saline
[3] = dose: 100.0 mg/kg/injection, schedule: Q01DX001 (ip), vehicle: Klucel (hydroxypropylcellulose) (HPC)
[4] = dose: 200.0 mg/kg/injection, schedule: Q01DX001 (ip), vehicle: Klucel (hydroxypropylcellulose) (HPC)
[5] = dose: 400.0 mg/kg/injection, schedule: Q01DX001 (ip), vehicle: Klucel (hydroxypropylcellulose) (HPC)
[6] = dose: 12.5 mg/kg/injection, schedule: Q01DX009 (ip), vehicle: saline
[7] = dose: 25.0 mg/kg/injection, schedule: Q01DX009 (ip), vehicle: saline
[8] = dose: 50.0 mg/kg/injection, schedule: Q01DX009 (ip), vehicle: saline
[9] = dose: 100.0 mg/kg/injection, schedule: Q04DX002 (ip), vehicle: saline
[10] = dose: 200.0 mg/kg/injection, schedule: Q04DX002 (ip), vehicle: saline
[11] = dose: 400.0 mg/kg/injection, schedule: Q04DX002 (ip), vehicle: saline
[12] = dose: 12.5 mg/kg/injection, schedule: Q01DX005 (ip), vehicle: Klucel (hydroxypropylcellulose) (HPC)
[13] = dose: 25.0 mg/kg/injection, schedule: Q01DX005 (ip), vehicle: Klucel (hydroxypropylcellulose) (HPC)
[14] = dose: 50.0 mg/kg/injection, schedule: Q01DX005 (ip), vehicle: Klucel (hydroxypropylcellulose) (HPC)
[15] = dose: 100.0 mg/kg/injection, schedule: Q01DX005 (ip), vehicle: Klucel (hydroxypropylcellulose) (HPC)
[16] = dose: 200.0 mg/kg/injection, schedule: Q01DX005 (ip), vehicle: Klucel (hydroxypropylcellulose) (HPC)
[17] = dose: 50.0 mg/kg/injection, schedule: Q01DX009 (ip), vehicle: saline with Tween-80
[18] = dose: 100.0 mg/kg/injection, schedule: Q01DX009 (ip), vehicle: saline with Tween-80
[19] = dose: 200.0 mg/kg/injection, schedule: Q01DX009 (ip), vehicle: saline with Tween-80
[20] = dose: 12.5 mg/kg/injection, schedule: Q01DX009 (ip), vehicle: Klucel (hydroxypropylcellulose) (HPC)
[21] = dose: 25.0 mg/kg/injection, schedule: Q01DX009 (ip), vehicle: Klucel (hydroxypropylcellulose) (HPC)
[22] = dose: 50.0 mg/kg/injection, schedule: Q01DX009 (ip), vehicle: Klucel (hydroxypropylcellulose) (HPC)
[23] = dose: 50.0 mg/kg/injection, schedule: Q01DX005 (ip), vehicle: saline with Tween-80
[24] = dose: 100.0 mg/kg/injection, schedule: Q01DX005 (ip), vehicle: saline with Tween-80
[25] = dose: 200.0 mg/kg/injection, schedule: Q01DX005 (ip), vehicle: saline with Tween-80

## CCOC(=O)CCOCOCCC(=O)OCC
[1]
  T/C: 100 % of control
[2]
  T/C: 115 % of control
dose: 400.0 mg/kg/injection, schedule: Q01DX009 (ip), vehicle: saline
  T/C: 110 % of control

## COc1cc(NC(C)=O)c(OC)c2c(=O)cc(C(=O)O)[nH]c12
[3]
  T/C: 93 % of control
[4]
  T/C: 98 % of control
[5]
  T/C: 99 % of control

## CCC(=O)Oc1ccc(/C=N/NC(N)=S)nc1
[6]
  T/C: 166 % of control
[7]
  T/C: 157 % of control
[8]
  T/C: 158 % of control and 164 % of control

## Cc1ccc2c(=O)n3cc(CCC#N)cc3c(=O)[nH]c2c1O
[3]
  T/C: 99 % of control
[4]
  T/C: 89 % of control
[5]
  T/C: 92 % of control

## Cc1ccc(S(=O)(=O)/C=C/C(=O)c2ccco2)cc1
[9]
  T/C: 108 % of control
[10]
  T/C: 112 % of control
[11]
  T/C: 100 % of control

## O=C(c1ccccc1)C(c1ccccc1)n1nc2c(c1-c1ccccc1)CCC2 (stereo not given)
dose: 12.5 mg/kg/injection, schedule: Q01DX001 (ip), vehicle: Klucel (hydroxypropylcellulose) (HPC)
  T/C: 100 % of control
dose: 25.0 mg/kg/injection, schedule: Q01DX001 (ip), vehicle: Klucel (hydroxypropylcellulose) (HPC)
  T/C: 95 % of control
dose: 50.0 mg/kg/injection, schedule: Q01DX001 (ip), vehicle: Klucel (hydroxypropylcellulose) (HPC)
  T/C: 98 % of control
[3]
  T/C: 100 % of control

## CNC(=O)OCc1c(COC(=O)NC)c(-c2ccccc2)n(-c2ccc(Cl)c(Cl)c2)c1C
dose: 12.5 mg/kg/injection, schedule: Q01DX009 (ip), vehicle: distilled water + Tween-80
  T/C: 117 % of control
dose: 25.0 mg/kg/injection, schedule: Q01DX009 (ip), vehicle: distilled water + Tween-80
  T/C: 160 % of control
dose: 100.0 mg/kg/injection, schedule: Q01DX009 (ip), vehicle: distilled water + Tween-80
  T/C: 155 % of control and 165 % of control
dose: 200.0 mg/kg/injection, schedule: Q01DX009 (ip), vehicle: distilled water + Tween-80
  T/C: 155 % of control and 184 % of control
dose: 400.0 mg/kg/injection, schedule: Q01DX009 (ip), vehicle: distilled water + Tween-80
  T/C: 87 % of control

## C=C1C(=O)O[C@@H]2C[C@H](C)[C@@H]3CC[C@H](O)[C@@]3(CO)C[C@H]12
[12]
  T/C: 102 % of control
[13]
  T/C: 102 % of control
[14]
  T/C: 103 % of control and 104 % of control
[15]
  T/C: 114 % of control
[16]
  T/C: 122 % of control

## COc1ccc2c(C)c3[n+](cc2c1OC)CCc1cc2c(cc1-3)OCO2
dose: 0.4 mg/kg/injection, schedule: Q01DX005 (ip), vehicle: saline
  T/C: 95 % of control
dose: 0.78 mg/kg/injection, schedule: Q04DX003 (ip), vehicle: water
  T/C: 102 % of control
dose: 0.8 mg/kg/injection, schedule: Q01DX005 (ip), vehicle: saline
  T/C: 101 % of control
dose: 1.56 mg/kg/injection, schedule: Q04DX003 (ip), vehicle: water
  T/C: 103 % of control
dose: 1.6 mg/kg/injection, schedule: Q01DX005 (ip), vehicle: saline
  T/C: 107 % of control
dose: 3.13 mg/kg/injection, schedule: Q04DX003 (ip), vehicle: water
  T/C: 106 % of control
dose: 6.25 mg/kg/injection, schedule: Q04DX003 (ip), vehicle: water
  T/C: 97 % of control
dose: 12.5 mg/kg/injection, schedule: Q04DX003 (ip), vehicle: water
  T/C: 97 % of control

## N/C(=C\S(=O)(=O)c1ccccc1)C12CC3CC(CC(C3)C1)C2
[17]
  T/C: 94 % of control
[18]
  T/C: 94 % of control
[19]
  T/C: 87 % of control

## CC1(C(=O)O)CCCC2(C)C3=CC(=O)OC3(OO)CCC12 (stereo not given)
[6]
  T/C: 104 % of control
[7]
  T/C: 101 % of control
[8]
  T/C: 101 % of control

## C#CCOC(=O)Nc1nc2ccc(C)cc2s1
dose: 6.25 mg/kg/injection, schedule: Q01DX009 (ip), vehicle: Klucel (hydroxypropylcellulose) (HPC)
  T/C: 107 % of control
[20]
  T/C: 104 % of control
[21]
  T/C: 101 % of control

## Cn1c(=O)c2nnn(-c3ccccc3)c2n(C)c1=O
dose: 45.0 mg/kg/injection, schedule: Q01DX009 (ip), vehicle: saline with Tween-80
  T/C: 100 % of control
dose: 90.0 mg/kg/injection, schedule: Q01DX009 (ip), vehicle: saline with Tween-80
  T/C: 115 % of control
dose: 180.0 mg/kg/injection, schedule: Q01DX009 (ip), vehicle: saline with Tween-80
  T/C: 100 % of control

## CCCCCNC(=S)N/N=C(\C)c1ccccn1
[20]
  T/C: 107 % of control
[21]
  T/C: 123 % of control
[22]
  T/C: 106 % of control

## N#CC1(OC2OC(CO)C(O)C(O)C2O)C=CC(O)C1O (stereo not given)
dose: 25.0 mg/kg/injection, schedule: Q01DX005 (ip), vehicle: saline
  T/C: 106 % of control
dose: 50.0 mg/kg/injection, schedule: Q01DX005 (ip), vehicle: saline
  T/C: 120 % of control
dose: 100.0 mg/kg/injection, schedule: Q01DX005 (ip), vehicle: saline
  T/C: 111 % of control and 97 % of control
dose: 200.0 mg/kg/injection, schedule: Q01DX005 (ip), vehicle: saline
  T/C: 121 % of control and 97 % of control
dose: 400.0 mg/kg/injection, schedule: Q01DX005 (ip), vehicle: saline
  T/C: 102 % of control

## c1ccc(Cc2cc(-c3ccccc3)[nH]c2-c2ccccc2)cc1
[8]
  T/C: 100 % of control
[1]
  T/C: 104 % of control
[2]
  T/C: 90 % of control

## CCCCCCCCCCCCCCCCOc1cccc(/C(=N/NS(C)(=O)=O)N2CCCCC2)c1
[22]
  T/C: 89 % of control
dose: 100.0 mg/kg/injection, schedule: Q01DX009 (ip), vehicle: Klucel (hydroxypropylcellulose) (HPC)
  T/C: 92 % of control
dose: 200.0 mg/kg/injection, schedule: Q01DX009 (ip), vehicle: Klucel (hydroxypropylcellulose) (HPC)
  T/C: 91 % of control

## CCN(CC)CCOc1ccc(/C(=C(\Cl)c2ccccc2)c2ccccc2)cc1
dose: 3.13 mg/kg/injection, schedule: Q01DX009 (ip), vehicle: saline with Tween-80
  T/C: 96 % of control
dose: 6.25 mg/kg/injection, schedule: Q01DX009 (ip), vehicle: saline with Tween-80
  T/C: 119 % of control
dose: 12.5 mg/kg/injection, schedule: Q01DX009 (ip), vehicle: saline with Tween-80
  T/C: 117 % of control
dose: 25.0 mg/kg/injection, schedule: Q01DX009 (ip), vehicle: saline with Tween-80
  T/C: 122 % of control
[23]
  T/C: 93 % of control
[17]
  T/C: 104 % of control
[24]
  T/C: 96 % of control
[25]
  T/C: 93 % of control

## Cc1ccc2cccc(OC(=O)c3cccnc3Oc3ccccc3)c2n1
[17]
  T/C: 91 % of control
[18]
  T/C: 90 % of control
[19]
  T/C: 90 % of control

## C=C1CC2(OC1=O)C1CC3CC(C1)CC2C3 (stereo not given)
[9]
  T/C: 99 % of control
[10]
  T/C: 98 % of control
[11]
  T/C: 99 % of control

## COc1ccc(Nc2c3sc4cc(OC)ccc4nc-3c3ccccc3c2=O)cc1
[23]
  T/C: 94 % of control
[24]
  T/C: 92 % of control
[25]
  T/C: 94 % of control

## C(=NCCC[Si]12OCCN(CCO1)CCO2)c1ccccc1
[14]
  T/C: 105 % of control
[15]
  T/C: 98 % of control
[16]
  T/C: 102 % of control

## CC(=O)CCC(=O)c1ccoc1
dose: 3.12 mg/kg/injection, schedule: Q01DX005 (ip), vehicle: Klucel (hydroxypropylcellulose) (HPC)
  T/C: 94 % of control
dose: 6.25 mg/kg/injection, schedule: Q01DX005 (ip), vehicle: Klucel (hydroxypropylcellulose) (HPC)
  T/C: 103 % of control
[12]
  T/C: 100 % of control
[13]
  T/C: 102 % of control and 95 % of control

## CCCCC(CC)C1NC(C(=O)O)CS1 (stereo not given)
dose: 50.0 mg/kg/injection, schedule: Q01DX009 (ip), vehicle: suspension in saline
  T/C: 96 % of control
dose: 100.0 mg/kg/injection, schedule: Q01DX009 (ip), vehicle: suspension in saline
  T/C: 87 % of control
dose: 200.0 mg/kg/injection, schedule: Q01DX009 (ip), vehicle: suspension in saline
  T/C: 96 % of control

— PubChem BioAssay AID330 (DTP/NCI, 2004)
